Test results: patent US12239780B2, “Bi-dose nasal spray” (AKROSWISS AG, priority 2018, dated 2025)

Experiments:
[1] = Bioavailability and plasma concentration after midazolam from the bi-dose nasal spray
claustrophobic patients = conditions: cited from earlier work
[2] = aqueous solution, depending on content of active agent; cited from earlier work
[3] = nasal administration, no first pass effect; cited from earlier work

Compound: Cc1ncc2n1-c1ccc(Cl)cc1C(c1ccccc1F)=NC2 [midazolam, 8-chloro-6-(2-fluorophenyl)-1-methyl-4H-imidazole[1,5-a][1,4]-benzodiazepine]
- time after administration at which a significant plasma concentration is achieved ([1]; bi-dose nasal spray, intranasal): 2 min
- bioavailability ([1]; human, plasma, inhaled or intranasal): > 83%
- MRI examinations carried out successfully and without relevant side effects (claustrophobic patients; 72 patients, oral 7.5 mg (TG1) or intranasal 1.0 to 2.0 mg (TG2)): 97%
- MRI imaging quality, intranasal group TG2 compared to oral group TG1 (claustrophobic patients; intranasal 1-2 mg versus oral 7.5 mg, p<0.001): significantly higher
- anxiolytic effect of nasally administered versus orally administered form (claustrophobic patients; intranasal 1-2 mg versus oral 7.5 mg): significantly superior
- pH below which the solution of the active agent is stable (precipitates at higher pH) [2]: < 3.8 pH
- bioavailability using a nasal spray [3]: about 80%
